Test systems include COLO 205 colon; UACC-257 melanoma; SK-MEL-28 melanoma; SN12C renal; SNB-75 CNS; SF-295 CNS; HCT-116 colon; MCF7 breast; DU-145 prostate; BT-549 breast.
Experiment in all cases: NCI tumour cell line growth inhibition, 48 h

Values joined by “and” are separate entries in the source; they are usually repeats but may differ in a detail not shown here. Equal values may be shown once.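 96-well plates; 48 h exposure; 5 concentrations. Endpoints by linear interpolation between flanking doses. Not reached: highest tested concentration assigned. The concentration for 50% growth inhibition is given as GI50. Definition used: TGI = concentration required for complete inhibition of growth.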 Some results are limits rather than exact numbers.

The record followed here is PubChem BioAssay (NCI).

Turning to `C=CCn1c(=S)sc2c(C(=O)OCC)c3c(C)cc(C)cn3c2c1=O`, the TGI in the experiment with COLO 205 colon, with UACC-257 melanoma, in the experiment on SK-MEL-28 melanoma, in the experiment on SN12C renal, in the experiment on SNB-75 CNS and with SF-295 CNS was > 100 µM in each case. Besides, the TGI in the experiment on HCT-116 colon was > 100 µM.
In the case of `N#C/C(=C/C=C/c1ccco1)C(N)=O`, the TGI in the experiment on COLO 205 colon, in the experiment with SK-MEL-28 melanoma, in the experiment with SN12C renal, with SNB-75 CNS, in the experiment with SF-295 CNS and in the experiment with MCF7 breast was > 10 µM each time. Besides, the TGI in the experiment with DU-145 prostate is > 10 µM.
As to `CCOC(=O)NC(=O)c1cn(CCN2CCN(C(=O)CNC(=O)CNC(=O)Cn3cc(C(=O)NC(=O)OCC)c(=O)[nH]c3=O)CC2)c(=O)[nH]c1=O`, the TGI with COLO 205 colon, in the experiment with UACC-257 melanoma, in the experiment with SK-MEL-28 melanoma, in the experiment with SN12C renal, in the experiment on SNB-75 CNS and in the experiment with SF-295 CNS was > 100 µM each time. For the same compound, in the experiment on HCT-116 colon, the TGI is > 100 µM.
Take `CC(C)C1CO[C@]2(C)CCC(=O)N12` (stereo partly drawn): the TGI in the experiment on COLO 205 colon, in the experiment on UACC-257 melanoma, in the experiment on SK-MEL-28 melanoma, with SN12C renal, in the experiment on SNB-75 CNS and in the experiment with SF-295 CNS was > 100 µM in each case. Moreover, in the experiment on HCT-116 colon, the TGI was > 100 µM.
Take `C[N+]1=c2c3cccc4cccc(c(=O)n2CC1)c43`: the TGI in the experiment with COLO 205 colon was determined as 24.6 µM; with UACC-257 melanoma, 30 µM; with SK-MEL-28 melanoma, 30.1 µM; with SN12C renal, 68.8 µM; with SNB-75 CNS, 45 µM; with SF-295 CNS it was 56.1 µM. The same compound yielded a TGI with HCT-116 colon of 17.3 µM.
On to `N#C/C(=C1\SCC(=O)N1c1ccccc1)c1nc2ccccc2[nH]1`, for which the TGI with COLO 205 colon, in the experiment with UACC-257 melanoma, in the experiment with SK-MEL-28 melanoma, with SN12C renal, in the experiment on SNB-75 CNS and in the experiment with SF-295 CNS was > 100 µM throughout. Also, in the experiment on HCT-116 colon, the TGI was > 100 µM.
As to `CCC1(O)CC(OC2CC(N(C)C)C(OC3CC(O)C(OC4OC(C)C(=O)C=C4N)C(C)O3)C(C)O2)c2c(cc3c(c2O)C(=O)c2c(O)cccc2C3=O)C1C(=O)OC` (stereo not drawn), the TGI is 0.338 µM and 0.766 µM in the experiment with COLO 205 colon; 0.553 µM and 0.356 µM in the experiment on UACC-257 melanoma; 0.363 µM and 0.189 µM in the experiment on SK-MEL-28 melanoma; 1.51 µM and 2.29 µM with SN12C renal; 0.555 µM in the experiment with SNB-75 CNS; 1.53 µM and 1.13 µM in the experiment with SF-295 CNS. Besides, the TGI with MCF7 breast was 0.756 µM and 2.64 µM; in the experiment on HCT-116 colon, 1.79 µM; in the experiment on DU-145 prostate, 1.7 µM and 1.71 µM. Moreover, in the experiment with SN12C renal, the GI50 was 0.0924 µM.
As to `C=C1C(=O)O[C@H]2[C@H]1CC/C(COC(=O)CCCCCC(=O)OC/C1=C/CC[C@@]3(C)O[C@H]3[C@H]3OC(=O)C(=C)[C@@H]3CC1)=C\CC[C@@]1(C)O[C@@H]21`, the GI50 with COLO 205 colon is 1.46 µM; in the experiment with UACC-257 melanoma, 1.93 µM; in the experiment on SK-MEL-28 melanoma, 2.45 µM; in the experiment on SN12C renal, 2.86 µM; with SNB-75 CNS it was 3.05 µM; with SF-295 CNS, 4.09 µM. Besides, the GI50 in the experiment with DU-145 prostate is 3.19 µM; with BT-549 breast, 1.44 µM. The TGI in the experiment on COLO 205 colon was determined as 3.32 µM; with UACC-257 melanoma it was 5.63 µM; in the experiment on SK-MEL-28 melanoma it was 6.84 µM; with SN12C renal it was 11.5 µM; in the experiment with SNB-75 CNS, 29.6 µM; in the experiment with SF-295 CNS it was 16.5 µM. In addition, the TGI stood at 12.1 µM in the experiment with DU-145 prostate and 3.02 µM in the experiment with BT-549 breast.
Regarding `Cc1ccc(S(=O)(=O)N/N=C(\c2nc3ccc(Cl)cc3[nH]c2=O)C(O)c2ccco2)cc1` (stereo not drawn), the TGI in the experiment with COLO 205 colon, in the experiment with UACC-257 melanoma, in the experiment with SK-MEL-28 melanoma, with SNB-75 CNS, with SF-295 CNS and with HCT-116 colon was > 100 µM each time.
For `C=CC(=O)N1C/C(=C\c2ccc(Cl)c(Cl)c2)C(=O)/C(=C/c2ccc(Cl)c(Cl)c2)C1`, the TGI with COLO 205 colon came to 0.243 µM; in the experiment on UACC-257 melanoma, 1.57 µM; in the experiment with SK-MEL-28 melanoma it was 1.5 µM; in the experiment on SN12C renal it was 0.302 µM; with SNB-75 CNS, 0.676 µM; in the experiment on SF-295 CNS, 0.891 µM. The TGI in the experiment with HCT-116 colon is 0.188 µM.
As to `COc1cc(CNc2nc3c(N)cc(C(F)(F)F)cc3nc2-c2ccccc2)cc(OC)c1OC`, the TGI with COLO 205 colon, in the experiment on UACC-257 melanoma, in the experiment with SK-MEL-28 melanoma, in the experiment on SN12C renal, in the experiment on SNB-75 CNS and in the experiment on SF-295 CNS was > 100 µM throughout. The TGI in the experiment with HCT-116 colon is > 100 µM.
As to `CCO/C=C1\N=C(c2ccc(Cl)c(Cl)c2)OC1=O`, the TGI with COLO 205 colon, in the experiment on UACC-257 melanoma, with SK-MEL-28 melanoma, with SN12C renal, in the experiment on SNB-75 CNS and with SF-295 CNS was > 100 µM in each case.
On to `CCCn1c2c(c3c(O)cccc31)C(=O)c1ccccc1-2`, for which the GI50 is > 100 µM in the experiment on COLO 205 colon; 22.9 µM in the experiment with UACC-257 melanoma; 10.4 µM with SK-MEL-28 melanoma; 21.9 µM in the experiment with SN12C renal; 23 µM in the experiment with SF-295 CNS; 58 µM in the experiment with MCF7 breast. Also, the GI50 with HCT-116 colon was 29.2 µM; in the experiment with DU-145 prostate, 23.4 µM. Moreover, the TGI is > 100 µM with COLO 205 colon; 96.5 µM with UACC-257 melanoma; 39.1 µM with SK-MEL-28 melanoma; 98.5 µM in the experiment on SN12C renal; 67.8 µM in the experiment with SF-295 CNS; > 100 µM in the experiment on MCF7 breast. Also, the TGI in the experiment with HCT-116 colon and in the experiment with DU-145 prostate was > 100 µM each time.
With `C#CC1(O)CCC2C3CCc4cc(Oc5nc(F)nc(-c6c7ccccc7c7n6CCS7)n5)ccc4C3CC[C@@]21C` (stereo partly drawn), the TGI with COLO 205 colon is 70 µM; in the experiment with UACC-257 melanoma, > 100 µM; with SK-MEL-28 melanoma, 57.9 µM; in the experiment on SNB-75 CNS, 49.1 µM; in the experiment on SF-295 CNS, 30.1 µM; with HCT-116 colon it was 25.8 µM.
In the case of `CC(C)/C=C1\CCC(CN2CCOCC2)C1=O` (stereo not drawn), the TGI in the experiment on COLO 205 colon was 22.3 µM; with UACC-257 melanoma, 20.1 µM; in the experiment on SK-MEL-28 melanoma, 32.2 µM; with SN12C renal it was 36.5 µM; with SF-295 CNS it was > 77.7 µM; in the experiment with HCT-116 colon, 23.4 µM.
On to `Cc1cc(N(CCC#N)S(=O)(=O)c2ccccc2)ccc1/C=C1\N=C(c2ccc(Cl)cc2)OC1=O`, for which the TGI in the experiment with COLO 205 colon, with UACC-257 melanoma, in the experiment on SK-MEL-28 melanoma, with SN12C renal, with SF-295 CNS and in the experiment with HCT-116 colon was > 100 µM each time.
